From patent US10526316B2, “Quinoxaline and pyridopyrazine derivatives as PI3Kβ inhibitors” (Janssen Pharmaceutica NV, priority 2015, dated 2020) come the findings set out here.

One series has as its target T1, PI3Kβ (Homo sapiens, UniProt P42338).
T1 construct: purchased DiscoveRx Corporation, San Diego (contract service, KINOMEscan)
As to the kind of experiment: Enzyme binding assay (KINOMEscan, DiscoveRx). The conditions noted are these: PIK3Cβ_h, read-out: Kd PIK3Cβ_h. An outline of the steps: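 Values are Kd in nM, the binding constant of each inhibitor for the kinase, obtained from a KINOMEscan enzyme binding assay.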

Another series deals with T2, PI3Kδ (Homo sapiens, UniProt O00329).
T2 construct: purchased DiscoveRx Corporation, San Diego (contract service, KINOMEscan)
T2 sequence (O00329 1-1044): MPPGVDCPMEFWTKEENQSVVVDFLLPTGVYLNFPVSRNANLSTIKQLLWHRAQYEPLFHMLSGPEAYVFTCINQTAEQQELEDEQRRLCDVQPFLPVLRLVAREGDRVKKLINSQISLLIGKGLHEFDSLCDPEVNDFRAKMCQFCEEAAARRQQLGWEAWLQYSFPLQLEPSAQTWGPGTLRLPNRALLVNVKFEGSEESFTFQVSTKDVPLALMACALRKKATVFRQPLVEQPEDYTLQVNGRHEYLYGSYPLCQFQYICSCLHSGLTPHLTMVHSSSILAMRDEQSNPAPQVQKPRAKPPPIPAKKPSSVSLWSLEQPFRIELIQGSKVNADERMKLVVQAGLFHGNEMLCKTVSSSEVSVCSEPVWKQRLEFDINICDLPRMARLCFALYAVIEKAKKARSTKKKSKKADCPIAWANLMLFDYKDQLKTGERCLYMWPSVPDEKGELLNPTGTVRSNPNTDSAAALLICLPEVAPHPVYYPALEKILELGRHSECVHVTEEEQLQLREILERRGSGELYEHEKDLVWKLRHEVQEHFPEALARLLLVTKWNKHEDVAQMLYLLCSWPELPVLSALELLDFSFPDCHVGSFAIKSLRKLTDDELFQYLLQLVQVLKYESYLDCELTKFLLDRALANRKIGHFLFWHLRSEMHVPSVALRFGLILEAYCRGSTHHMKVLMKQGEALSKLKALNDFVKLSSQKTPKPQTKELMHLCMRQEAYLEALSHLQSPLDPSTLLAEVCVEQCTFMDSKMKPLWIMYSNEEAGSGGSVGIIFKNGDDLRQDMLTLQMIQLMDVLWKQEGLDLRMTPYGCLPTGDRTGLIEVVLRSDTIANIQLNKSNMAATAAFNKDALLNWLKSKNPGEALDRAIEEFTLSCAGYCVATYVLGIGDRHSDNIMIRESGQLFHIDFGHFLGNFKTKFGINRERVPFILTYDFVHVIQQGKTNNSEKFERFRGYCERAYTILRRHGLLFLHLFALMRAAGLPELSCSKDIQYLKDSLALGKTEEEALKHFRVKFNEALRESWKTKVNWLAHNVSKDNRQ
As to the kind of experiment: Enzyme binding assay (KINOMEscan, DiscoveRx). The conditions noted are these: PIK3Cδ_h. An outline of the steps:
(§1)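 Affinity for each kinase was determined by KINOMEscan profiling.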

Series [1] deals with T3, kinase enzymes (Homo sapiens, UniProt P42336).
T3 construct: purchased DiscoveRx Corporation, San Diego (contract service, KINOMEscan)
Put plainly: Enzyme binding assay (KINOMEscan, DiscoveRx), further kinases of Table A. The conditions noted are these: PIK3Cα_h. A digest of the protocol: as §1

The target of series [2] is T4, kinase enzymes (Homo sapiens, UniProt P42345).
T4 construct: purchased DiscoveRx Corporation, San Diego (contract service, KINOMEscan)
The description is as above. The following applies: MTOR_h. An outline of the steps: as §1

The target in series [3] is T5, kinase enzymes (Homo sapiens, UniProt P48736).
T5 construct: purchased DiscoveRx Corporation, San Diego (contract service, KINOMEscan)
Described as above. The following applies: PIK3Cγ_h. A digest of the protocol:
as §1

Series [4] concerns Akt phosphorylated at Ser473 in PC-3 cells. As to the kind of experiment: Cellular assay: phosphorylation of Akt at Ser473 in PC-3 cells (MSD ELISA). The format is cell-based. The following applies: PC-3 cells, 60 min compound incubation, MSD ELISA, read-out: IC50 pAkt_S473. A digest of the protocol:
(§2)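 Compound treatment of PC-3 cells lasted 60 min at 37° C (0.3% DMSO). Lysates were then applied to plates carrying capture antibodies for the relevant phospho-site, and bound Akt was detected with an electrochemiluminescent anti-total Akt antibody; IC50s derive from five-point curves.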

In series [5] the test system is Akt phosphorylated at Thr308 in PC-3 cells. As to the kind of experiment: Cellular assay: phosphorylation of Akt at Thr308 in PC-3 cells (MSD ELISA). The class given is cell-based. The conditions noted are these: PC-3 cells, 60 min compound incubation, MSD ELISA, read-out: IC50 pAkt_Thr308. A digest of the protocol:
as §2

Molecules are shown by their SMILES. Like-named read-outs stand apart in the source and are kept apart here.

T3 sequence (P42336 whole entry): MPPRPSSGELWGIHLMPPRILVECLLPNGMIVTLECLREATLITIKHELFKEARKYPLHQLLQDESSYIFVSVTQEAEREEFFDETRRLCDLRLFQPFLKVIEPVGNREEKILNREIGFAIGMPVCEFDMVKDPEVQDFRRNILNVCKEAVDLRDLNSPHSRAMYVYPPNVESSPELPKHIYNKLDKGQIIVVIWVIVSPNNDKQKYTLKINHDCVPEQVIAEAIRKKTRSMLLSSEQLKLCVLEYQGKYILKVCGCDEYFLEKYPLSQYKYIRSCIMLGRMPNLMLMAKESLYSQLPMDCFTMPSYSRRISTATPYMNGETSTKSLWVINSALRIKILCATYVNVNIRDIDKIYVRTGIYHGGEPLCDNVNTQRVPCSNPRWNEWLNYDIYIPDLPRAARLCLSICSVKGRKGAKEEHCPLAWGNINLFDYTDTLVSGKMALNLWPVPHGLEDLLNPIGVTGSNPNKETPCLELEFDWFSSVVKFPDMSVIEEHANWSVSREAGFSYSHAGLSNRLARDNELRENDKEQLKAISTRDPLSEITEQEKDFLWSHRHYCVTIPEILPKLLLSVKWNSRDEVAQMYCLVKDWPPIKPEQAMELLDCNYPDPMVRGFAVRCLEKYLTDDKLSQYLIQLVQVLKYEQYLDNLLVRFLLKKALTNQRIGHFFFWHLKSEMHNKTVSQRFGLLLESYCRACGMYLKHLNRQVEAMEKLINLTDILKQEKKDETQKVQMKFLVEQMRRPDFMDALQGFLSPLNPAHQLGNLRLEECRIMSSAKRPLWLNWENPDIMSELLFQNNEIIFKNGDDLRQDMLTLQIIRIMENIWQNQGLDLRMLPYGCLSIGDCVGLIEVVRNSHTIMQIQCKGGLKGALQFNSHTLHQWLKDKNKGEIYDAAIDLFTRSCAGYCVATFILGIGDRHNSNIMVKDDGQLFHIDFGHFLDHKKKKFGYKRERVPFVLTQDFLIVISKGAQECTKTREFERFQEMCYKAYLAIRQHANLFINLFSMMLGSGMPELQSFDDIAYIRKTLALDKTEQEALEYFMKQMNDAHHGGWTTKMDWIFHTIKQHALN
T1 sequence (P42338 whole entry): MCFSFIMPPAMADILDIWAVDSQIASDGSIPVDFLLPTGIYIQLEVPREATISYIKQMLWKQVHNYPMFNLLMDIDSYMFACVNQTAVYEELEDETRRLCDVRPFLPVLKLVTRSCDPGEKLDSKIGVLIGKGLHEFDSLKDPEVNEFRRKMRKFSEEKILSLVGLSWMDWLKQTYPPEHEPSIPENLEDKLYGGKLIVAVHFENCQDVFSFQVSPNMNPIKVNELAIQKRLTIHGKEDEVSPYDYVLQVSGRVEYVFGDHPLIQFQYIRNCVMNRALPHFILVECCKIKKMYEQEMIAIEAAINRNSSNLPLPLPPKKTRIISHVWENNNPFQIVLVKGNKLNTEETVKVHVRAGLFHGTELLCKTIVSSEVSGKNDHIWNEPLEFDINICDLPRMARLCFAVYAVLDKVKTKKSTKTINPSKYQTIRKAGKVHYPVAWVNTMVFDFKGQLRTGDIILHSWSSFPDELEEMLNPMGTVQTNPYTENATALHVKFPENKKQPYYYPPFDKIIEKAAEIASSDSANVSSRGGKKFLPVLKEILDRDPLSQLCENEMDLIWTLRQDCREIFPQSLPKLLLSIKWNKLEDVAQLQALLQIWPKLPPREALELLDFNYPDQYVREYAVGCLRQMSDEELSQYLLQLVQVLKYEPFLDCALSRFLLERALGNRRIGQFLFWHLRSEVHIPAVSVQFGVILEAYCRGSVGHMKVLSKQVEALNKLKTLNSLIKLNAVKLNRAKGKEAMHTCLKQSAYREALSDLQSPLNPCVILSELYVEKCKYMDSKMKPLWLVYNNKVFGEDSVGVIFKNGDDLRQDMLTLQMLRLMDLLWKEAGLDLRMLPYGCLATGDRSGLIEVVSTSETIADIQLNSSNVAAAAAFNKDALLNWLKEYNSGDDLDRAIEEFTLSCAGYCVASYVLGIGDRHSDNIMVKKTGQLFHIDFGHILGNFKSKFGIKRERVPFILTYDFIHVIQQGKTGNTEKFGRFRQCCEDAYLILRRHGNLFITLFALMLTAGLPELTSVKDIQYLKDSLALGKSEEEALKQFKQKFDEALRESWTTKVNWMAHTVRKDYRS
T5 sequence (P48736 whole entry): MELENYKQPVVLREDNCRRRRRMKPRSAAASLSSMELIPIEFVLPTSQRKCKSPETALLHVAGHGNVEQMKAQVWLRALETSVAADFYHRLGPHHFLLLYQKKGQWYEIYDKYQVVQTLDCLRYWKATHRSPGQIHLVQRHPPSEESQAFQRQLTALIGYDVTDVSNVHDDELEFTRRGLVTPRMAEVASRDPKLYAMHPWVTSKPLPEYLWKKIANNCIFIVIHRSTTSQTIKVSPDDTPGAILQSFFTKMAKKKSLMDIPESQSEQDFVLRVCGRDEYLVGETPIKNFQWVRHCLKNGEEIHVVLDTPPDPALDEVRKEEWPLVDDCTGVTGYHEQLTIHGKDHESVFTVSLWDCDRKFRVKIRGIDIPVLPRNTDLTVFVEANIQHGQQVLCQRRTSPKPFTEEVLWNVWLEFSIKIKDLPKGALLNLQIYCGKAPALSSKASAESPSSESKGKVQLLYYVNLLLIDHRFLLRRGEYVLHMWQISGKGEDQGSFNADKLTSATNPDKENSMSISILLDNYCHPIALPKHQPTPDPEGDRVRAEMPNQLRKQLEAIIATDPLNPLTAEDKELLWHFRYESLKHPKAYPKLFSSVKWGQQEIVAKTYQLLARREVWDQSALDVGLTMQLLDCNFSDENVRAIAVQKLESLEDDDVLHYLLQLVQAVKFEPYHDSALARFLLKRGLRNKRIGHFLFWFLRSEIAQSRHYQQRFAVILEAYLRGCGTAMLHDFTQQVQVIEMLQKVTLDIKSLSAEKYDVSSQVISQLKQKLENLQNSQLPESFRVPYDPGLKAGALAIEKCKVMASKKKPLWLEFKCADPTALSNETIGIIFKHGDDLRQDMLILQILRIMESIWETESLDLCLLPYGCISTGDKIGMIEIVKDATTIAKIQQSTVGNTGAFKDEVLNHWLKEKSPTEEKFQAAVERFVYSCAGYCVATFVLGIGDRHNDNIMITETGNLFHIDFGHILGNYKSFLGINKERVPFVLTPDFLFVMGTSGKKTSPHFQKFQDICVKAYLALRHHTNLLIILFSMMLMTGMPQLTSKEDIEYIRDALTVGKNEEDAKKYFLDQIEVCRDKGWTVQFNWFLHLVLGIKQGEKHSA

Take `COc1cc(NC(C)c2cc(C(=O)N3CCOCC3)cc3ncc(N4CCOCC4)nc23)cc(OC)c1` (stereo not drawn) [Compound 134]: the melting point came to 80 °C. The equilibrium dissociation constant (Kd) at PI3Kβ came out at 87 nM. This compound also showed a Kd on PI3Kδ of 6310 nM. This compound showed a dissociation constant (Kd) at kinase enzymes [1] of more than 30200 nM. For the same compound, on kinase enzymes [2], the equilibrium dissociation constant (Kd) was more than 30200 nM. This compound came in with a dissociation constant Kd at kinase enzymes [3] of more than 30200 nM. Besides, the half-maximal inhibitory concentration (IC50) in series [4] (Homo sapiens, PC-3, 1 h) was more than 513 nM. The IC50 in series [5] (Homo sapiens, PC-3, 1 h) is more than 513 nM.

In turn, `CC(Sc1ccccc1)c1cc(C(=O)N(C)C)cc2ncc(N3CCOCC3)nc12` (stereo not drawn) [Compound 135] showed a melting point of 144 °C. Also, at PI3Kβ, the Kd stood at 195 nM. The affinity at PI3Kδ, expressed as Kd, was 3800 nM. The compound also displayed a Kd on kinase enzymes [1] of 10000 nM. At kinase enzymes [2], this compound yielded a dissociation constant (Kd) of 11200 nM. At kinase enzymes [3], this compound showed a Kd of 17400 nM. For the same compound, the IC50 in series [4] (Homo sapiens, PC-3, 1 h) is more than 513 nM. In addition, in series [5] (Homo sapiens, PC-3, 1 h), the IC50 was more than 513 nM.

Take `CC(Oc1cc(F)cc(F)c1)c1cc(C(=O)N(C)C)cc2ncc(C3=CCOCC3)nc12` (single isomer, unassigned) [Compound 403a]: the melting point came out at 53 °C. Further, the Kd at PI3Kβ stood at 3 nM. For the same compound, at PI3Kδ, the Kd was determined as 331 nM. This compound gave a dissociation constant Kd on kinase enzymes [1] of 1480 nM. Moreover, the Kd on kinase enzymes [2] was more than 30200 nM. In addition, on kinase enzymes [3], the Kd came out at 8910 nM. For the same compound, the half-maximal inhibitory concentration (IC50) in series [4] (Homo sapiens, PC-3, 1 h) was approximately 275 nM. In addition, the IC50 in series [5] was approximately 132 nM.

With `CC(Nc1cccc(F)c1)c1cc(C(=O)N2CCC[C@H](O)C2)cc2ncc(N3CCOCC3)nc12` (single isomer, unassigned) [Compound 320a], the melting point is 110 °C. On PI3Kβ, the equilibrium dissociation constant (Kd) stood at 2 nM. For the same compound, the Kd at PI3Kδ turned out to be 182 nM. Moreover, at kinase enzymes [1], the dissociation constant Kd is 513 nM. On kinase enzymes [2], this compound showed a Kd of more than 30200 nM. Also, the dissociation constant (Kd) at kinase enzymes [3] turned out to be 4470 nM. Besides, the half-maximal inhibitory concentration (IC50) in series [4] (Homo sapiens, PC-3, 1 h) amounted to 20 nM. In series [5] (Homo sapiens, PC-3, 1 h), the IC50 worked out at 17 nM.

`CNCCNC(=O)c1cc(C(C)Nc2cc(F)cc(F)c2)c2nc(N3CCOCC3)cnc2c1` (single isomer, unassigned) [Compound 406a] registered a melting point of 80 °C. Moreover, the Kd on PI3Kβ is 0.1 nM. Also, at PI3Kδ, binding was put at a Kd of 39 nM. Further, the affinity on kinase enzymes [1], expressed as Kd, was 372 nM. At kinase enzymes [2], this compound came in with a dissociation constant Kd of 22900 nM. Moreover, the Kd on kinase enzymes [3] was 1050 nM. Also, the IC50 in series [4] was 8 nM. For the same compound, the IC50 in series [5] is 4 nM.

The compound `CC(Nc1cc(F)cc(F)c1)c1cc(C(=O)N2CCN(CC(F)(F)F)CC2)cc2ncc(N3CCOCC3)nc12` (single isomer, unassigned) [Compound 172] came in with a melting point of 130 °C. At PI3Kβ, the equilibrium dissociation constant (Kd) amounted to 1260 nM. The compound also registered a Kd on PI3Kδ of more than 30200 nM. The same compound gave a Kd at kinase enzymes [1] of more than 30200 nM. This compound gave a Kd on kinase enzymes [2] of more than 30200 nM. The compound also registered a Kd on kinase enzymes [3] of more than 30200 nM. Also, in series [4] (Homo sapiens, PC-3, 1 h), the IC50 is more than 513 nM. In series [5] (Homo sapiens, PC-3, 1 h), the 50% inhibitory concentration (IC50) is more than 513 nM.

Compound `CC(Nc1cccc(F)c1)c1cc(C(=O)NCC(=O)O)cc2ncc(N3CCOCC3)nc12` (single isomer, unassigned) [Compound 393b] showed a melting point of 196 °C. For the same compound, the Kd on PI3Kβ turned out to be 2290 nM. This compound also showed a Kd on PI3Kδ of 25700 nM. In addition, the equilibrium dissociation constant (Kd) on kinase enzymes [1] came to 11000 nM. Moreover, the dissociation constant (Kd) at kinase enzymes [2] was 15800 nM. The same compound showed a dissociation constant Kd on kinase enzymes [3] of 6610 nM. The IC50 in series [4] is more than 513 nM. Besides, in series [5], the half-inhibitory concentration (IC50) is more than 513 nM.

With `O=C(c1cc(C2CCCN2c2cc(F)cc(F)c2)c2nc(N3CCOCC3)cnc2c1)N1CCC[C@H]1CO` (mixture of isomers) [Compound 64], the melting point turned out to be 80 °C. At PI3Kβ, the Kd was determined as 1 nM. On PI3Kδ, this compound returned a Kd of 58 nM. The same compound had a dissociation constant (Kd) on kinase enzymes [1] of 224 nM. Further, the Kd on kinase enzymes [2] is 15100 nM. Besides, the Kd at kinase enzymes [3] is 1290 nM. The IC50 in series [4] (Homo sapiens, PC-3, 1 h) came out at 13 nM. Also, the IC50 in series [5] (Homo sapiens, PC-3, 1 h) amounted to 6 nM.

In the case of `CNCCNC(=O)c1cc(C2CCCN2c2cc(F)cc(F)c2)c2nc(N3CCOCC3)cnc2c1` (single isomer, unassigned) [Compound 17], the melting point amounted to 170 °C. For the same compound, the Kd on PI3Kβ was 0.1 nM. The compound further registered a dissociation constant (Kd) at PI3Kδ of 3 nM. For the same compound, binding at kinase enzymes [1] was characterised by a dissociation constant (Kd) of 25 nM. Besides, binding on kinase enzymes [2] was characterised by a dissociation constant (Kd) of 12300 nM. On kinase enzymes [3], this compound had a dissociation constant Kd of 107 nM. Moreover, the IC50 in series [4] (Homo sapiens, PC-3, 1 h) was approximately 3 nM. Moreover, in series [5] (Homo sapiens, PC-3, 1 h), the IC50 stood at 1 nM.
